Assay results reported in PubChem BioAssay (NCI).
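Method: 48-hour compound exposure of cells in 96-well plates, five concentrations, linear interpolation of endpoints. TGI denotes the concentration required for complete inhibition of growth.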

Experiments:
Assay in all cases: growth of human tumour cells (NCI), 48 h
[1] = test system: MDA-MB-435
[2] = test system: HCT-116 colon
[3] = test system: HCT-15 colon
[4] = test system: EKVX NSCLC
[5] = test system: OVCAR-4 ovarian
[6] = test system: OVCAR-3 ovarian
[7] = test system: HS 578T breast
[8] = test system: U251 CNS
[9] = test system: K-562 leukemia
[10] = test system: SK-MEL-5 melanoma
[11] = test system: HOP-92 NSCLC
[12] = test system: MCF7 breast
[13] = test system: NCI-H226 lung
[14] = test system: NCI-H522 lung
[15] = test system: MOLT-4 leukemia
[16] = test system: PC-3 prostate
[17] = test system: RPMI-8226 leukemia
[18] = test system: MALME-3M melanoma
[19] = test system: UACC-62 melanoma
[20] = test system: TK-10 renal
[21] = test system: LOX IMVI melanoma
[22] = test system: CCRF-CEM leukemia
[23] = test system: A498 renal
[24] = test system: MDA-N
[25] = test system: HT29 colon
[26] = test system: SW-620 colon
[27] = test system: SK-MEL-28 melanoma
[28] = test system: OVCAR-8 ovarian
[29] = test system: DU-145 prostate
[30] = test system: NCI-H23 lung
[31] = test system: SF-539 CNS
[32] = test system: SF-295 CNS
[33] = test system: SK-OV-3 ovarian
[34] = test system: COLO 205 colon
[35] = test system: KM12 colon
[36] = test system: A549 NSCLC
[37] = test system: SN12C renal
[38] = test system: NCI-H460 lung
[39] = test system: MDA-MB-231 breast
[40] = test system: SK-MEL-2 melanoma
[41] = test system: UO-31 renal
[42] = test system: CAKI-1 renal
[43] = test system: HOP-62 NSCLC
[44] = test system: ACHN renal
[45] = test system: RXF 393 renal
[46] = test system: HCC-2998 colon
[47] = test system: UACC-257 melanoma
[48] = test system: IGROV1 ovarian
[49] = test system: SNB-19 CNS
[50] = test system: 786-0 renal
[51] = test system: HL-60(TB) leukemia
[52] = test system: SR leukemia
[53] = test system: SF-268 CNS
[54] = test system: T-47D breast
[55] = test system: SNB-75 CNS
[56] = test system: M14 melanoma
[57] = test system: NCI/ADR-RES ovarian
[58] = test system: BT-549 breast
[59] = test system: OVCAR-5 ovarian

CC(=O)CC(O)(C(F)(F)Cl)C(F)(F)Cl
TGI [1]: > 10 µM | TGI [2]: > 10 µM | TGI [3]: > 10 µM | TGI [4]: > 10 µM | TGI [5]: > 10 µM | TGI [6]: > 10 µM | TGI [7]: > 10 µM | TGI [8]: > 10 µM | TGI [9]: > 10 µM | TGI [10]: > 10 µM | TGI [11]: > 10 µM | TGI [12]: > 10 µM | TGI [13]: > 10 µM | TGI [14]: > 10 µM | TGI [15]: > 10 µM | TGI [16]: > 10 µM | TGI [17]: > 10 µM | TGI [18]: > 10 µM | TGI [19]: > 10 µM | TGI [20]: > 10 µM | TGI [21]: > 10 µM | TGI [22]: > 10 µM | TGI [23]: > 10 µM | TGI [24]: > 10 µM | TGI [25]: > 10 µM | TGI [26]: > 10 µM | TGI [27]: > 10 µM | TGI [28]: > 10 µM | TGI [29]: > 10 µM | TGI [30]: > 10 µM | TGI [31]: > 10 µM | TGI [32]: > 10 µM | TGI [33]: > 10 µM | TGI [34]: > 10 µM | TGI [35]: > 10 µM | TGI [36]: > 10 µM | TGI [37]: > 10 µM | TGI [38]: > 10 µM | TGI [39]: > 10 µM | TGI [40]: > 10 µM | TGI [41]: > 10 µM | TGI [42]: > 10 µM | TGI [43]: > 10 µM | TGI [44]: > 10 µM | TGI [45]: > 10 µM | TGI [46]: > 10 µM | TGI [47]: > 10 µM | TGI [48]: > 10 µM | TGI [49]: > 10 µM | TGI [50]: > 10 µM | TGI [51]: > 10 µM | TGI [52]: > 10 µM | TGI [53]: > 10 µM | TGI [54]: > 10 µM | TGI [55]: > 10 µM | TGI [56]: > 10 µM | TGI [57]: > 10 µM

CCc1nnc(CC)n1-n1c(Cc2ccccc2)n[nH]c1=O
TGI [1]: > 100 µM | TGI [2]: > 100 µM | TGI [3]: > 100 µM | TGI [4]: > 100 µM | TGI [5]: > 100 µM | TGI [6]: > 100 µM | TGI [8]: > 100 µM | TGI [58]: > 100 µM | TGI [9]: > 100 µM | TGI [10]: > 100 µM | TGI [11]: > 100 µM | TGI [12]: > 100 µM | TGI [14]: > 100 µM | TGI [15]: > 100 µM | TGI [16]: > 100 µM | TGI [17]: > 100 µM | TGI [19]: > 100 µM | TGI [20]: > 100 µM | TGI [21]: > 100 µM | TGI [22]: > 100 µM | TGI [24]: > 100 µM | TGI [25]: > 100 µM | TGI [26]: > 100 µM | TGI [27]: > 100 µM | TGI [28]: > 100 µM | TGI [29]: > 100 µM | TGI [30]: > 100 µM | TGI [31]: > 100 µM | TGI [32]: > 100 µM | TGI [33]: > 100 µM | TGI [34]: > 100 µM | TGI [35]: > 100 µM | TGI [36]: > 100 µM | TGI [37]: > 100 µM | TGI [39]: > 100 µM | TGI [40]: > 100 µM | TGI [41]: > 100 µM | TGI [43]: > 100 µM | TGI [44]: > 100 µM | TGI [45]: > 100 µM | TGI [46]: > 100 µM | TGI [47]: > 100 µM | TGI [48]: > 100 µM | TGI [49]: > 100 µM | TGI [50]: > 100 µM | TGI [52]: > 100 µM | TGI [53]: > 100 µM | TGI [55]: > 100 µM | TGI [56]: > 100 µM | TGI [57]: > 100 µM | TGI [59]: > 100 µM

COC(=O)[C@@]12CCCC(=O)[C@@H]1[C@H]1CCC[C@H]12
TGI [1]: > 100 µM | TGI [2]: > 100 µM | TGI [3]: > 100 µM | TGI [4]: > 100 µM | TGI [5]: > 100 µM | TGI [6]: > 100 µM | TGI [8]: > 100 µM | TGI [58]: > 100 µM | TGI [9]: > 100 µM | TGI [10]: > 100 µM | TGI [11]: > 100 µM | TGI [12]: > 100 µM | TGI [13]: > 100 µM | TGI [14]: > 100 µM | TGI [15]: > 100 µM | TGI [16]: > 100 µM | TGI [17]: > 100 µM | TGI [18]: > 100 µM | TGI [19]: > 100 µM | TGI [20]: > 100 µM | TGI [21]: > 100 µM | TGI [22]: > 100 µM | TGI [24]: > 100 µM | TGI [25]: > 100 µM | TGI [26]: > 100 µM | TGI [27]: > 100 µM | TGI [28]: > 100 µM | TGI [29]: > 100 µM | TGI [30]: > 100 µM | TGI [31]: > 100 µM | TGI [32]: > 100 µM | TGI [33]: > 100 µM | TGI [34]: > 100 µM | TGI [35]: > 100 µM | TGI [36]: > 100 µM | TGI [37]: > 100 µM | TGI [38]: > 100 µM | TGI [39]: > 100 µM | TGI [40]: > 100 µM | TGI [41]: > 100 µM | TGI [42]: > 100 µM | TGI [43]: > 100 µM | TGI [44]: > 100 µM | TGI [45]: > 100 µM | TGI [46]: > 100 µM | TGI [47]: > 100 µM | TGI [48]: > 100 µM | TGI [49]: > 100 µM | TGI [50]: > 100 µM | TGI [52]: > 100 µM | TGI [53]: > 100 µM | TGI [55]: > 100 µM | TGI [56]: > 100 µM | TGI [57]: > 100 µM | TGI [59]: > 100 µM
